Measurements published in patent US10475593B2, “Use of halogen derivatives of histidine as electrolytic salt in a photovoltaic dye cell” (CENTRE NATIONAL DE LA RECHERCHE SCIENTIFIQUE, priority 2014, dated 2019).

Experiment: Thermogravimetric analysis under air
Type: physicochemical
Method: A thermogravimetric analysis under air of the compound 3a was also carried out after storage exposed to the air for 3 weeks.
By way of comparison, a thermogravimetric analysis of an imidazolium iodide not coming within the invention, namely 1,3-dimethylimidazolium iodide (DMII), was also carried out.
The results obtained are given in the appended FIGS. 1 and 2. FIG. 1 gives the results of the calorimetric analysis of the compound 3a. In this figure, the heat flux (in W/g) is a function of the temperature (in ° C.). FIG. 2 gives the results of the thermogravimetric analysis for the compound 3a (continuous line) in comparison with the DMII (noncontinuous line).
In comparison, DMII allows a loss in weight of the order of 30% originating from the water captured as a result of its hygroscopicity.

temperature up to which the compound is stable (thermogravimetric analysis under air) [°C]	SMILES	hygroscopicity (after storage exposed to the air for 3 weeks)	loss in weight originating from captured water (hygroscopicity) (thermogravimetric analysis) [%]
300	COC(=O)CCc1cn(C)c[n+]1C.[I-] [Compound 3a, 4-(3-methoxy-3-oxopropyl)-1,3-dimethyl-1H-imidazol-3-ium Iodide]	does not exhibit any hygroscopicity nature	
	Cn1cc[n+](C)c1.[I-] [DMII, 1,3-Dimethylimidazolium iodide, reference compound]		~30
